Test results: patent US20230265098A1, “ALKYNE QUINAZOLINE DERIVATIVES AS INHIBITORS OF ERBB2” (EnLiven Therapeutics, Inc., priority 2020, published 2023)

Tests used:
[1] = system: A431 cells; test: Cell viability assay (CellTiter Glo); assay type: cell-based; details: Homo sapiens, A-431; 72 hours; 1500 cells per well, 384-well; DMEM + 10% FBS
Procedure: (§1) Cells were treated with compounds, and cell viability was measured as a metric of kinase inhibition.
(§2) The Ba/F3 cell line is IL-3-dependent mouse cell line derived from the C3H mouse strain. Ba/F3 cell lines were engineered to express human ERBB2 or EGFR kinases, rendering the cells IL-3 independent. The lines were generated via retroviral transduction utilizing a Moloney murine leukemia virus (MMLV) promoter, and constructs are stably integrated into the cell genome.
(§3) Similarly, Ba/F3 cell lines engineered to express EGFR, ERBB2, or ERBB2 mutants were grown, harvested, counted and seeded at 3000 cells per well in 96-well plates for the data sets shown in Tables B3-B4, and seeded at 300 cells per well in 384-well plates for the data set shown in Table B5. A subset of wells contained media only (low control, “LC”).
(§4) Table B2 provides the growth media and number of cells seeded per well for the each cell line.
(§5) Compounds were dissolved in DMSO and serially diluted. Serially-diluted compound or a DMSO only control (high control, “HC”) was added to the plated cells in each well. […] The final proportion of DMSO never exceeded 0.1%.
(§6) Plates were placed in a 37° C., 5% CO2 incubator for 72 hours. Plates were then removed from the incubator and equilibrated for 15 minutes at room temperature. 40 IA of CellTiter Glo reagent (Promega) was added to measure the relative level of metabolically active cells by quantifying intracellular ATP concentrations. Plates were incubated for 30 minutes at room temperature, and luminescence was measured. Percent viability was normalized to a vehicle control only using the following formula: % viability=100×(LumSample−LumLC) (LumHC−LumLC). Graphical curves were fitted using a nonlinear regression model with a sigmoidal dose response.

[2] = system: BT-474 cells; test: Cell viability assay (CellTiter Glo); assay type: cell-based; details: Homo sapiens, 72 hours, 2000 cells per well, 384-well, DMEM + 10% FBS
Procedure: as §1, §2, §3, §4, §5, §6

[3] = system: MDA-MB-175VII cells; test: Cell viability assay (CellTiter Glo); assay type: cell-based; details: Homo sapiens, 72 hours, 2000 cells per well, 384-well, RPMI + 10% FBS
Procedure: as §1, §2, §3, §4, §5, §6

[4] = target: T1, Ba/F3 ERBB2-P780_Y781insGSP (Homo sapiens, UniProt P04626, DUP778-780, cells depend on it); test: Cell viability assay (CellTiter Glo); assay type: cell-based, mouse; details: 72 hours; 3000 cells per well, 96-well plates; read-out: Cell viability IC50, nM, Ba/F3 ERBB2-P780_Y781insGSP
T1 construct: Ba/F3 cell lines were engineered to express human ERBB2 or EGFR kinases, rendering the cells IL-3 independent
Procedure: as §1, §2, §3, §4, §5
as §6, with “Percent viability was normalized to a vehicle control only using the following formula: % viability=100×(LumSample−LumLC) (LumHC−LumLC).” left out

[5] = target: T2, phosphorylated ERBB2 (pERBB2) (Homo sapiens, UniProt P04626); test: Detection of phosphorylated ERBB2 (pERBB2) by ELISA in BT-474 cells; assay type: cell-based; details: four hours incubation with compound, OD 450 nm
T2 construct: endogenous in cells; host or cells: BT-474
Method in brief: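 BT-474 cells were treated for 4 h at 37 °C with four-fold compound dilutions from 10 μM to 0.01 nM final, then lysed. Phospho-ERBB2 in the lysates was measured by ELISA with TMB read-out at 450 nm. Relative activity was normalised between cell-free wells and 0.1% DMSO-treated cells.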

[6] = target: T3, Ba/F3 ERBB2-V777L (Homo sapiens, UniProt P04626, V777L, cells depend on it); test: Cell viability assay (CellTiter Glo); assay type: cell-based, mouse; details: 72 hours; 3000 cells per well, 96-well plates; read-out: Cell viability IC50, nM, Ba/F3 ERBB2-V777L
T3 construct: Ba/F3 cell lines were engineered to express human ERBB2 or EGFR kinases, rendering the cells IL-3 independent
Method in brief: (§7)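 Murine Ba/F3 cells made IL-3-independent by retroviral human EGFR or ERBB2 were seeded at 3000 or 300 cells per well and exposed to serially diluted compound (DMSO ≤0.1%) for 72 hours at 37° C, 5% CO2. CellTiter Glo luminescence was normalised to DMSO and media-only controls and fitted to a sigmoidal dose-response.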

[7] = target: T4, Ba/F3 ERBB2-T798M (Homo sapiens, UniProt P04626, T798M, cells depend on it); test: Cell viability assay (CellTiter Glo); assay type: cell-based, mouse; details: 72 hours; 3000 cells per well, 96-well plates; read-out: Cell viability IC50, nM, Ba/F3 ERBB2-T798M
T4 construct: Ba/F3 cell lines were engineered to express human ERBB2 or EGFR kinases, rendering the cells IL-3 independent
Method in brief: as §7

[8] = target: T5, Ba/F3 ERBB2 wt (Homo sapiens, UniProt P04626); test: Cell viability assay (CellTiter Glo); assay type: cell-based, mouse; details: 72 hours; 3000 cells per well, 96-well plates; read-out: Cell viability IC50, nM, Ba/F3 ERBB2 wt
T5 construct: Ba/F3 cell lines were engineered to express human ERBB2 or EGFR kinases, rendering the cells IL-3 independent
Method in brief: as §7

[9] = target: T6, Ba/F3 ERBB2-V777_G778insGC (Homo sapiens, UniProt P04626, INS778CG, cells depend on it); test: Cell viability assay (CellTiter Glo); assay type: cell-based, mouse; details: 72 hours; 3000 cells per well, 96-well plates; read-out: Cell viability IC50, nM, Ba/F3 ERBB2-V777_G778insGC
T6 construct: Ba/F3 cell lines were engineered to express human ERBB2 or EGFR kinases, rendering the cells IL-3 independent
Method in brief: as §7

[10] = target: T7, Ba/F3 ERBB2-L869R (Homo sapiens, UniProt P04626, L869R, cells depend on it); test: Cell viability assay (CellTiter Glo); assay type: cell-based, mouse; details: 72 hours; 3000 cells per well, 96-well plates; read-out: Cell viability IC50, nM, Ba/F3 ERBB2-L869R
T7 construct: Ba/F3 cell lines were engineered to express human ERBB2 or EGFR kinases, rendering the cells IL-3 independent
Method in brief: as §7

[11] = target: T8, Ba/F3 ERBB2 A775_G776insYVMA (Homo sapiens, UniProt P04626, DUP772-775, cells depend on it); test: Cell viability assay (CellTiter Glo); assay type: cell-based, mouse; details: 72 hours; 3000 cells per well, 96-well plates (Tables B3-B4); read-out: Cell viability IC50, nM, Ba/F3 ERBB2 A775_G776insYVMA
T8 construct: Ba/F3 cell lines were engineered to express human ERBB2 or EGFR kinases, rendering the cells IL-3 independent
Method in brief: as §7

[12] = target: T9, Ba/F3 ERBB2-L755S (Homo sapiens, UniProt P04626, L755S, cells depend on it); test: Cell viability assay (CellTiter Glo); assay type: cell-based, mouse; details: 72 hours; 3000 cells per well, 96-well plates; read-out: Cell viability IC50, nM, Ba/F3 ERBB2-L755S
T9 construct: Ba/F3 cell lines were engineered to express human ERBB2 or EGFR kinases, rendering the cells IL-3 independent
Method in brief: as §7

[13] = target: T10, Ba/F3 ERBB2-G776VC (Homo sapiens, UniProt P04626, DELINS776-776VC, cells depend on it); test: Cell viability assay (CellTiter Glo); assay type: cell-based, mouse; details: 72 hours; 3000 cells per well, 96-well plates; read-out: Cell viability IC50, nM, Ba/F3 ERBB2-G776VC
T10 construct: Ba/F3 cell lines were engineered to express human ERBB2 or EGFR kinases, rendering the cells IL-3 independent
Method in brief: as §7

T1 sequence (P04626 with tags, fused parts or gaps DUP778-780): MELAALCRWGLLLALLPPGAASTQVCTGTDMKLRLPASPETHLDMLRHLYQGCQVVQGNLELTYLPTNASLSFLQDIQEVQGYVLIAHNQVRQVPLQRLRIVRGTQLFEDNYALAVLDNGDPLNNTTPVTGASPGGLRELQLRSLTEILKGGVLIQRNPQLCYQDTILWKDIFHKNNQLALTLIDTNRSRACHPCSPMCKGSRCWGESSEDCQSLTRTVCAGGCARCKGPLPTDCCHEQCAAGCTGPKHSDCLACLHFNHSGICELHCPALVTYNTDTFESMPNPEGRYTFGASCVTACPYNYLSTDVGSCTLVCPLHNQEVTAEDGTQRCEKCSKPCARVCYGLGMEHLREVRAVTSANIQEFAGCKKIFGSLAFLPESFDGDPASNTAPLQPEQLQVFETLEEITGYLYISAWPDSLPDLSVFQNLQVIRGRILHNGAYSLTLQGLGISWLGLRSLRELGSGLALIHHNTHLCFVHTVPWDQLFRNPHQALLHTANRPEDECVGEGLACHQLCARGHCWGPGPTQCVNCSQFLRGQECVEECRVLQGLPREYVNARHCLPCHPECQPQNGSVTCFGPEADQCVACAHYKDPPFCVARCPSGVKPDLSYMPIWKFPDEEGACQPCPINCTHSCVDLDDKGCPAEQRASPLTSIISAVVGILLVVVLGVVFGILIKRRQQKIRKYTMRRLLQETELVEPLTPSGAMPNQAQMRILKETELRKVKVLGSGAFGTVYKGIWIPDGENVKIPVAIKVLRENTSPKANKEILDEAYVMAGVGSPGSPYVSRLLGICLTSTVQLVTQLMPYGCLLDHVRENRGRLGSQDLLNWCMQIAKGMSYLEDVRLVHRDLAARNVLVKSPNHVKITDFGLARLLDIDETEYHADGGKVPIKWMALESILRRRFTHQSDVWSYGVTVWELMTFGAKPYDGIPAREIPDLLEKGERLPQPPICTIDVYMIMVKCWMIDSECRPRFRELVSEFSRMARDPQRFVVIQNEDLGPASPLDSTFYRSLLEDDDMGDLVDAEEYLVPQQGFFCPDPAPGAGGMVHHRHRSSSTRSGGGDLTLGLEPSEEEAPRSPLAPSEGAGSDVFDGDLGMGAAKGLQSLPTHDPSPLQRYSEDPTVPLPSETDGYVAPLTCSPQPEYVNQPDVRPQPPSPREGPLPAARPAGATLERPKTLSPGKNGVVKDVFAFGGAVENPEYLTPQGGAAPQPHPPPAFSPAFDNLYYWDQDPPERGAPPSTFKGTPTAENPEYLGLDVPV
T4 sequence (P04626 whole entry T798M): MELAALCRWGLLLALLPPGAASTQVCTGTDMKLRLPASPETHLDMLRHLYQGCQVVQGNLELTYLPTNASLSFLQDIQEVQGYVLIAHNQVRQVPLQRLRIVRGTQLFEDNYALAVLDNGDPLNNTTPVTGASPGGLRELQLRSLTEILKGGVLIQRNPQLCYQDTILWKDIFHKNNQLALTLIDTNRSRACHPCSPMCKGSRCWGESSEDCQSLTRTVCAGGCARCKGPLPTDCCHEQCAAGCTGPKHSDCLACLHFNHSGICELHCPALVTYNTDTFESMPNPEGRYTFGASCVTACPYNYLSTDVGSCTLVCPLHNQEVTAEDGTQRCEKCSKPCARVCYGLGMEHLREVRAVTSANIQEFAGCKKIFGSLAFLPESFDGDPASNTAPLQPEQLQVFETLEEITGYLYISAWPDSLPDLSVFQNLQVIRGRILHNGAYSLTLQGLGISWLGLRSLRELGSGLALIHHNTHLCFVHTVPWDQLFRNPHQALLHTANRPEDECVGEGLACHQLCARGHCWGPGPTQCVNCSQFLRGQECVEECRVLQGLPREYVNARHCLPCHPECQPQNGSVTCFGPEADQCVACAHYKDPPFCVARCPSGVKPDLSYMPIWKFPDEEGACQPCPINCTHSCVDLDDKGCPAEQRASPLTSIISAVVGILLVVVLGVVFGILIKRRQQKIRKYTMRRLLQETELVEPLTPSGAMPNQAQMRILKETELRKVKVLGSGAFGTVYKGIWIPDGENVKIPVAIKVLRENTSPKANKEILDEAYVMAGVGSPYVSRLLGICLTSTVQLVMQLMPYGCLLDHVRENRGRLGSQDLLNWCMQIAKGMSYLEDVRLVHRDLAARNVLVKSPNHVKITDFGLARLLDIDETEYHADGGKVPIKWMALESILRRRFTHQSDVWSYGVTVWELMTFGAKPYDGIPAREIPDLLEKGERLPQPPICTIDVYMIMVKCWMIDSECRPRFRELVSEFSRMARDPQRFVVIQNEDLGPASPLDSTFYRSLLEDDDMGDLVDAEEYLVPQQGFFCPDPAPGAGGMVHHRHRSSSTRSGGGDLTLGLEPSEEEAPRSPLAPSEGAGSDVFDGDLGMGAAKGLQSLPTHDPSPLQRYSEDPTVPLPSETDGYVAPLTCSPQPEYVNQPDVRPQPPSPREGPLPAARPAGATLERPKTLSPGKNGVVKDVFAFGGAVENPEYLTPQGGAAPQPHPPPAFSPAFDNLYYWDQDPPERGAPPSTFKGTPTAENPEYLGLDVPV
T3 sequence (P04626 whole entry V777L): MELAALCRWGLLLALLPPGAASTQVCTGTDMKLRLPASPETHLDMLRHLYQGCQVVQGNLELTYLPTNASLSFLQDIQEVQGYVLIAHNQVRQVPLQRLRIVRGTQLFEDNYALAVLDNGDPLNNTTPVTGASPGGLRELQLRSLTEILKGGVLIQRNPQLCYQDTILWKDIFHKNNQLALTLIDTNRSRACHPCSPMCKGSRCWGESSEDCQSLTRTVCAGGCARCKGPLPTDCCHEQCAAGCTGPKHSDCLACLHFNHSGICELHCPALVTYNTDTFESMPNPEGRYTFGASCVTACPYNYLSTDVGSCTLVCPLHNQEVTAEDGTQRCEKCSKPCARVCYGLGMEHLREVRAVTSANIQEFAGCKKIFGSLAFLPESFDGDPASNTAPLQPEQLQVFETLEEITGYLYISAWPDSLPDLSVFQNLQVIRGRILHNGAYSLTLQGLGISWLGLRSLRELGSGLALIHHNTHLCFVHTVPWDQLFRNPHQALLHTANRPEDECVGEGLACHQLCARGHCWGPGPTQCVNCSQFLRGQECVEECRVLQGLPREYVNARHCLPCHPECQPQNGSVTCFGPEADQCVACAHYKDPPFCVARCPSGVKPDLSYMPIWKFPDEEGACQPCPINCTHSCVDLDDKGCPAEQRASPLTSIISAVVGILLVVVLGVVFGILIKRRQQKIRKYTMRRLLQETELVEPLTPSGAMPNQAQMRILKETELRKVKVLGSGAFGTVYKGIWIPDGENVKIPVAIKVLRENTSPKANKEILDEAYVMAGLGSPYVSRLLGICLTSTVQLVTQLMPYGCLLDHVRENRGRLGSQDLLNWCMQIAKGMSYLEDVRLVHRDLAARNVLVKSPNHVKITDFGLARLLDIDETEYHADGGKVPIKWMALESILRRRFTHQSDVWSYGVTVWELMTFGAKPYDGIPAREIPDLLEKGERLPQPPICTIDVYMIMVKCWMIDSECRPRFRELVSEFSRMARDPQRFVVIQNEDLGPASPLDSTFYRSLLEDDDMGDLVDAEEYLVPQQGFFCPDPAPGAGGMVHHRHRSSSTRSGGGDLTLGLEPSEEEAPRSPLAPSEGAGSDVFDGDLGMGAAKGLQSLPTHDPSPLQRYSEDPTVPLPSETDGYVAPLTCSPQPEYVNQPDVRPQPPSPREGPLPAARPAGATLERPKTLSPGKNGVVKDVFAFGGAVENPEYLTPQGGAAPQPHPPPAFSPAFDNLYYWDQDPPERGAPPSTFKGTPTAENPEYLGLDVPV
T6 sequence (P04626 with tags, fused parts or gaps INS778CG): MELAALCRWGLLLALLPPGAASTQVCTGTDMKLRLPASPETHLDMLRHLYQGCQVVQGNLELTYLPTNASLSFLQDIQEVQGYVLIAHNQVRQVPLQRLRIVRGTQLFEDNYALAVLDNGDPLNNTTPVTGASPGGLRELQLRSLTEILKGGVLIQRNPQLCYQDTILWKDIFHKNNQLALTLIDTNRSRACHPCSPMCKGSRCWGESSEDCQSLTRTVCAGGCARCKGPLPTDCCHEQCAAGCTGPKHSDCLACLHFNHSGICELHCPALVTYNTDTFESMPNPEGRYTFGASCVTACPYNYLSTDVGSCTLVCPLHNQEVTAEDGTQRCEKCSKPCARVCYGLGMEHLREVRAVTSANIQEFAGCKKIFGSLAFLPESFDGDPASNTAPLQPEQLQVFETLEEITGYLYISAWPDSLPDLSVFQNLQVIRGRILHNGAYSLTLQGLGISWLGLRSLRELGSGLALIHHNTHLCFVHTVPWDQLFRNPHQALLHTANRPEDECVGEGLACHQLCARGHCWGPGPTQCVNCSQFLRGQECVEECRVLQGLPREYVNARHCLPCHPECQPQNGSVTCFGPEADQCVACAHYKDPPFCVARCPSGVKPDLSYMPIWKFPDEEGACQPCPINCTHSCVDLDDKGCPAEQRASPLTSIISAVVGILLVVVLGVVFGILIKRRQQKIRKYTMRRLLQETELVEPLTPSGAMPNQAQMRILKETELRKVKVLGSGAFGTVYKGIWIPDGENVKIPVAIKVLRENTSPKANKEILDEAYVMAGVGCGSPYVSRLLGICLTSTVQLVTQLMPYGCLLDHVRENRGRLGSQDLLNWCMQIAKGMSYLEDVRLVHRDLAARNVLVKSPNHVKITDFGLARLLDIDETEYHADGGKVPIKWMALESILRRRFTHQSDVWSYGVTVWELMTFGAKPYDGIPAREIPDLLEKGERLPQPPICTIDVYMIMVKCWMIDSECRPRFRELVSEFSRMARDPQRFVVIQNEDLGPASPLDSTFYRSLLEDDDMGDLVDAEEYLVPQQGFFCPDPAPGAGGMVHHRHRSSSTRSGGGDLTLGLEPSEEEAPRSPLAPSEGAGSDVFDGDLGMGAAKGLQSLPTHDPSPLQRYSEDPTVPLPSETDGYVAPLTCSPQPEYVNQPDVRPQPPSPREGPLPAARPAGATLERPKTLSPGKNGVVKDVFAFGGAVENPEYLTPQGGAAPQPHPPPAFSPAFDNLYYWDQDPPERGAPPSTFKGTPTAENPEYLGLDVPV

Compound `CC#CC(=O)Nc1ccc2ncnc(Nc3ccc(Cc4ccn5ncnc5c4)cc3)c2c1` [Compound 14, N-[4-[(4-[[1,2,4]triazolo[1,5-a]pyridin-7-ylmethyl]phenyl)amino]quinazolin-6-yl]but-2-ynamide] has an IC50 [1] of 3550 nM, an IC50 [2] of 9.6 nM and an IC50 [3] of 30.4 nM. For the same compound, the GI50 [4] was 3.8 nM, the IC50 [5] was 0.0143 µM and the GI50 [6] was 1.5 nM. It also gave a GI50 [7] of 482 nM, a GI50 [8] of 5.1 nM and a GI50 [9] of 4 nM. For the same compound, the GI50 [10] was 9.5 nM, the GI50 [11] was 36 nM and the GI50 [12] was 25 nM. The GI50 [13] was 13 nM.
